Reference: ChEMBL document CHEMBL3885861, “Open TG-GATES”

Organism: Rattus norvegicus
Experiment: Open TG-GATES - Regimen: Single
Assay type: toxicity, organism-based, Sprague-Dawley
Design: regimen Single, gender Male, age 6 weeks
Conditions: in vivo, iv, route intravenous injection; for MCV / Mono / Neu / PT / Plat / RBC / Ret / WBC / APTT / Bas / Eos / Fbg / Ht / Lym / Hb / MCH / MCHC: tissue Blood; for KIDNEY_L / KIDNEY_R / KIDNEY_TOTAL: tissue Kidney; for LIVER: tissue Liver
[1] = 30 mg/kg, 3 h, dose level Middle
[2] = 30 mg/kg, 3 h, tissue Plasma, dose level Middle
[3] = 30 mg/kg, 6 h, dose level Middle
[4] = 30 mg/kg, 6 h, tissue Plasma, dose level Middle
[5] = 30 mg/kg, 9 h, dose level Middle
[6] = 30 mg/kg, 9 h, tissue Plasma, dose level Middle
[7] = 30 mg/kg, 24 h, dose level Middle
[8] = 30 mg/kg, 24 h, tissue Plasma, dose level Middle
[9] = 100 mg/kg, 3 h, dose level High
[10] = 100 mg/kg, 3 h, tissue Plasma, dose level High
[11] = 100 mg/kg, 6 h, dose level High
[12] = 100 mg/kg, 6 h, tissue Plasma, dose level High
[13] = 100 mg/kg, 9 h, dose level High
[14] = 100 mg/kg, 9 h, tissue Plasma, dose level High
[15] = 100 mg/kg, 24 h, dose level High
[16] = 100 mg/kg, 24 h, tissue Plasma, dose level High

GENTAMICIN
MCV [1]: 62.9 fL
Mono [1]: 3.2%
Neu [1]: 16.4%
PT [1]: 16.2 s
Plat [1]: 131.2 x10_4/uL
RBC [1]: 626.2 x10_4/ul
Ret [1]: 6.5%
WBC [1]: 81.8 x10_2/uL
KIDNEY_L [1]: 0.9 g
KIDNEY_R [1]: 0.9 g
KIDNEY_TOTAL [1]: 1.8 g
LIVER [1]: 9.6 g
ALT [2]: 42.6 IU/L
AST [2]: 82.2 IU/L
CRE [2]: 0.1 mg/dL
DBIL [2]: 0.004 mg/dL
GLC [2]: 182 mg/dL
IP [2]: 8.1 mg/dL
K [2]: 4.3 meq/L
LDH [2]: 251.4 IU/L
PL [2]: 133.2 mg/dL
RALB [2]: 2.9 g/dL
TBIL [2]: 0.02 mg/dL
TC [2]: 62.4 mg/dL
TG [2]: 99.2 mg/dL
TP [2]: 5.3 g/dL
gamma-GTP [2]: 1.4 IU/L
TERMINAL_BW [3]: 210.3 g
APTT [3]: 23.2 s
Bas [3]: 0%
Eos [3]: 0.4%
Fbg [3]: 291.6 mg/dL
Ht [3]: 39.5%
Lym [3]: 77.6%
MCV [3]: 62 fL
Mono [3]: 3.4%
PT [3]: 16 s
Plat [3]: 119.1 x10_4/uL
RBC [3]: 636.4 x10_4/ul
Ret [3]: 6.3%
WBC [3]: 117 x10_2/uL
KIDNEY_L [3]: 0.9 g
KIDNEY_R [3]: 1 g
KIDNEY_TOTAL [3]: 1.9 g
LIVER [3]: 8.7 g
ALP [4]: 1316 IU/L
ALT [4]: 35 IU/L
AST [4]: 68.8 IU/L
BUN [4]: 9.4 mg/dL
CRE [4]: 0.1 mg/dL
DBIL [4]: 0.002 mg/dL
GLC [4]: 177.2 mg/dL
IP [4]: 9 mg/dL
K [4]: 4.3 meq/L
PL [4]: 139.4 mg/dL
RALB [4]: 3 g/dL
TBIL [4]: 0.024 mg/dL
TC [4]: 74.6 mg/dL
TG [4]: 84.4 mg/dL
TP [4]: 5.3 g/dL
gamma-GTP [4]: 1 IU/L
TERMINAL_BW [5]: 213 g
APTT [5]: 24 s
Bas [5]: 0%
Eos [5]: 1%
Fbg [5]: 294.6 mg/dL
Hb [5]: 13 g/dL
Ht [5]: 38.6%
Lym [5]: 77.4%
MCH [5]: 21 pg
MCHC [5]: 33.6%
Mono [5]: 3%
Neu [5]: 17.2%
PT [5]: 16.2 s
Plat [5]: 122.8 x10_4/uL
RBC [5]: 617.4 x10_4/ul
Ret [5]: 5.8%
WBC [5]: 109.5 x10_2/uL
KIDNEY_L [5]: 1 g
KIDNEY_R [5]: 1 g
KIDNEY_TOTAL [5]: 2 g
LIVER [5]: 8.5 g
ALP [6]: 1266.6 IU/L
ALT [6]: 34.4 IU/L
AST [6]: 72 IU/L
BUN [6]: 10.8 mg/dL
CRE [6]: 0.1 mg/dL
DBIL [6]: 0.002 mg/dL
GLC [6]: 175.2 mg/dL
IP [6]: 9.5 mg/dL
K [6]: 4.4 meq/L
LDH [6]: 134.6 IU/L
Na [6]: 144.2 meq/L
PL [6]: 134.2 mg/dL
RALB [6]: 2.9 g/dL
TBIL [6]: 0.022 mg/dL
TC [6]: 73.8 mg/dL
TG [6]: 49.4 mg/dL
TP [6]: 5.2 g/dL
gamma-GTP [6]: 1.6 IU/L
TERMINAL_BW [7]: 228.1 g
APTT [7]: 22.7 s
Bas [7]: 0%
Eos [7]: 0.8%
Fbg [7]: 295.4 mg/dL
Hb [7]: 12.9 g/dL
Ht [7]: 38%
Lym [7]: 76.6%
MCHC [7]: 34%
MCV [7]: 61.3 fL
Mono [7]: 4%
Neu [7]: 18%
PT [7]: 16.4 s
Plat [7]: 115.7 x10_4/uL
RBC [7]: 621.4 x10_4/ul
Ret [7]: 6%
WBC [7]: 112.3 x10_2/uL
KIDNEY_L [7]: 1 g
KIDNEY_R [7]: 1 g
KIDNEY_TOTAL [7]: 2 g
LIVER [7]: 10.2 g
ALP [8]: 1367.4 IU/L
ALT [8]: 41.4 IU/L
BUN [8]: 15.6 mg/dL
CRE [8]: 0.2 mg/dL
DBIL [8]: 0.004 mg/dL
IP [8]: 7.2 mg/dL
K [8]: 4.1 meq/L
LDH [8]: 137.2 IU/L
PL [8]: 153.2 mg/dL
RALB [8]: 3 g/dL
TBIL [8]: 0.02 mg/dL
TC [8]: 81.4 mg/dL
TG [8]: 101.6 mg/dL
TP [8]: 5.4 g/dL
gamma-GTP [8]: 1 IU/L
TERMINAL_BW [9]: 221.2 g
APTT [9]: 22.7 s
Bas [9]: 0%
Eos [9]: 1%
Fbg [9]: 284 mg/dL
Ht [9]: 37.3%
Lym [9]: 72%
MCV [9]: 63.9 fL
Mono [9]: 3%
Neu [9]: 23.3%
Plat [9]: 123.5 x10_4/uL
RBC [9]: 584 x10_4/ul
Ret [9]: 6.4%
WBC [9]: 86 x10_2/uL
KIDNEY_L [9]: 1 g
KIDNEY_R [9]: 1 g
KIDNEY_TOTAL [9]: 1.9 g
LIVER [9]: 9.9 g
ALP [10]: 1392.3 IU/L
ALT [10]: 41.3 IU/L
AST [10]: 82.7 IU/L
BUN [10]: 13 mg/dL
CRE [10]: 0.1 mg/dL
Ca [10]: 11 mg/dL
DBIL [10]: 0.0067 mg/dL
GLC [10]: 177.3 mg/dL
IP [10]: 7.9 mg/dL
K [10]: 4.1 meq/L
LDH [10]: 155.3 IU/L
PL [10]: 129.7 mg/dL
RALB [10]: 2.8 g/dL
TBIL [10]: 0.03 mg/dL
TC [10]: 69.3 mg/dL
TG [10]: 71.7 mg/dL
TP [10]: 5.2 g/dL
gamma-GTP [10]: 1 IU/L
TERMINAL_BW [11]: 211.7 g
APTT [11]: 24.2 s
Bas [11]: 0%
Eos [11]: 0.8%
Fbg [11]: 292 mg/dL
Ht [11]: 39.4%
Lym [11]: 74.2%
MCH [11]: 21 pg
MCHC [11]: 33.9%
MCV [11]: 61.9 fL
Mono [11]: 3.6%
Neu [11]: 20.6%
PT [11]: 15.9 s
Plat [11]: 126.2 x10_4/uL
RBC [11]: 637 x10_4/ul
Ret [11]: 6.6%
WBC [11]: 92.6 x10_2/uL
KIDNEY_L [11]: 0.9 g
KIDNEY_R [11]: 0.9 g
KIDNEY_TOTAL [11]: 1.8 g
LIVER [11]: 8.4 g
ALP [12]: 1407.2 IU/L
ALT [12]: 34.8 IU/L
AST [12]: 67.6 IU/L
CRE [12]: 0.1 mg/dL
DBIL [12]: 0.004 mg/dL
GLC [12]: 176.2 mg/dL
IP [12]: 9 mg/dL
K [12]: 4.7 meq/L
LDH [12]: 165.8 IU/L
PL [12]: 144.4 mg/dL
RALB [12]: 2.9 g/dL
TBIL [12]: 0.02 mg/dL
TG [12]: 98.6 mg/dL
TP [12]: 5.2 g/dL
gamma-GTP [12]: 1.2 IU/L
TERMINAL_BW [13]: 211.4 g
APTT [13]: 22.4 s
Bas [13]: 0%
Eos [13]: 0.8%
Fbg [13]: 296.4 mg/dL
Hb [13]: 12.9 g/dL
Ht [13]: 38.7%
Lym [13]: 80.6%
MCH [13]: 20.6 pg
MCHC [13]: 33.3%
MCV [13]: 61.9 fL
Mono [13]: 3.2%
Plat [13]: 120.1 x10_4/uL
RBC [13]: 625.2 x10_4/ul
Ret [13]: 6.4%
WBC [13]: 76.1 x10_2/uL
KIDNEY_L [13]: 0.9 g
KIDNEY_R [13]: 1 g
KIDNEY_TOTAL [13]: 1.9 g
LIVER [13]: 8.6 g
ALP [14]: 1221 IU/L
ALT [14]: 30.8 IU/L
AST [14]: 65.6 IU/L
BUN [14]: 12.8 mg/dL
CRE [14]: 0.1 mg/dL
Ca [14]: 11 mg/dL
DBIL [14]: 0.002 mg/dL
GLC [14]: 174.6 mg/dL
IP [14]: 9.4 mg/dL
K [14]: 4.7 meq/L
LDH [14]: 145.2 IU/L
PL [14]: 144 mg/dL
RALB [14]: 2.9 g/dL
TBIL [14]: 0.016 mg/dL
TC [14]: 77 mg/dL
TG [14]: 70.4 mg/dL
TP [14]: 5.3 g/dL
gamma-GTP [14]: 1 IU/L
TERMINAL_BW [15]: 225.5 g
APTT [15]: 23.2 s
Bas [15]: 0%
Eos [15]: 1%
Fbg [15]: 301.2 mg/dL
Hb [15]: 13.6 g/dL
Ht [15]: 39.5%
Lym [15]: 77.4%
MCHC [15]: 34.4%
MCV [15]: 60.8 fL
Mono [15]: 4.8%
PT [15]: 16.4 s
Plat [15]: 122.8 x10_4/uL
RBC [15]: 649.4 x10_4/ul
Ret [15]: 5.4%
WBC [15]: 96.8 x10_2/uL
KIDNEY_L [15]: 1 g
KIDNEY_R [15]: 1 g
KIDNEY_TOTAL [15]: 2 g
LIVER [15]: 9.6 g
ALP [16]: 1293.2 IU/L
ALT [16]: 37.8 IU/L
AST [16]: 66.4 IU/L
CRE [16]: 0.1 mg/dL
DBIL [16]: 0.002 mg/dL
GLC [16]: 186.4 mg/dL
IP [16]: 7.7 mg/dL
K [16]: 4.2 meq/L
LDH [16]: 159.2 IU/L
PL [16]: 162.4 mg/dL
RALB [16]: 3.1 g/dL
TBIL [16]: 0.018 mg/dL
TC [16]: 82.4 mg/dL
TG [16]: 110.2 mg/dL
TP [16]: 5.5 g/dL
gamma-GTP [16]: 1.2 IU/L
